Patent publication US7872018B2, “Compounds and methods for kinase modulation, and indications therefor” (Plexxikon, Inc., priority 2006, dated 2011)

Tests used:
B-Raf = B-Raf (Homo sapiens, UniProt P15056); assay: B-Raf kinase activity assay; assay type: biochemical; conditions: under the test conditions employed; read-out: IC50 toward kinase B-Raf
B-Raf V600E = B-Raf V600E (Homo sapiens, UniProt P15056, V600E); assay: B-Raf V600E kinase activity assay; assay type: biochemical; conditions: under the test conditions employed; read-out: IC50 toward kinase B-Raf V600E
B-Raf V600E, sequence (P15056 whole entry V600E): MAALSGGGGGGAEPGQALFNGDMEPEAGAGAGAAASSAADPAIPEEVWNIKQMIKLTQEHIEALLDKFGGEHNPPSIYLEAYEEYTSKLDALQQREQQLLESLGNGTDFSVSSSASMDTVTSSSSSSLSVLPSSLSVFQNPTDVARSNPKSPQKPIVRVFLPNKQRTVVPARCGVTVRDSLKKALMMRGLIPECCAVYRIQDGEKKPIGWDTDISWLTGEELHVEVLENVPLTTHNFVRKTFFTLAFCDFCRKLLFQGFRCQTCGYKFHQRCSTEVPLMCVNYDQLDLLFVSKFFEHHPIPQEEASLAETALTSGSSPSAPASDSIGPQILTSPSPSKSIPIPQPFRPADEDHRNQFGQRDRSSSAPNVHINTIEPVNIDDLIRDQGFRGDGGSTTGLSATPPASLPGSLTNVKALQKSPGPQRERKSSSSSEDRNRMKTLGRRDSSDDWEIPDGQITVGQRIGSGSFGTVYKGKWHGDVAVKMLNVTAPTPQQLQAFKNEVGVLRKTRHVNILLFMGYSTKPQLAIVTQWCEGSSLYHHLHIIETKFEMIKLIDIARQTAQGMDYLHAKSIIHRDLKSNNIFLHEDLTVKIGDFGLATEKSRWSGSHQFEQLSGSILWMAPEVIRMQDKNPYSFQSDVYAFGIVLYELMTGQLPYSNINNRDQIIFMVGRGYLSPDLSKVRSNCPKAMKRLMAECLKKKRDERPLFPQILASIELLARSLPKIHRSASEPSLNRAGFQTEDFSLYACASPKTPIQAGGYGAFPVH

FGFR = FGFR (Homo sapiens, UniProt P11362); assay: FGFR kinase activity assay; assay type: biochemical; conditions: under the test conditions employed; read-out: IC50 toward kinase FGFR
FGFR, sequence (P11362 22-822): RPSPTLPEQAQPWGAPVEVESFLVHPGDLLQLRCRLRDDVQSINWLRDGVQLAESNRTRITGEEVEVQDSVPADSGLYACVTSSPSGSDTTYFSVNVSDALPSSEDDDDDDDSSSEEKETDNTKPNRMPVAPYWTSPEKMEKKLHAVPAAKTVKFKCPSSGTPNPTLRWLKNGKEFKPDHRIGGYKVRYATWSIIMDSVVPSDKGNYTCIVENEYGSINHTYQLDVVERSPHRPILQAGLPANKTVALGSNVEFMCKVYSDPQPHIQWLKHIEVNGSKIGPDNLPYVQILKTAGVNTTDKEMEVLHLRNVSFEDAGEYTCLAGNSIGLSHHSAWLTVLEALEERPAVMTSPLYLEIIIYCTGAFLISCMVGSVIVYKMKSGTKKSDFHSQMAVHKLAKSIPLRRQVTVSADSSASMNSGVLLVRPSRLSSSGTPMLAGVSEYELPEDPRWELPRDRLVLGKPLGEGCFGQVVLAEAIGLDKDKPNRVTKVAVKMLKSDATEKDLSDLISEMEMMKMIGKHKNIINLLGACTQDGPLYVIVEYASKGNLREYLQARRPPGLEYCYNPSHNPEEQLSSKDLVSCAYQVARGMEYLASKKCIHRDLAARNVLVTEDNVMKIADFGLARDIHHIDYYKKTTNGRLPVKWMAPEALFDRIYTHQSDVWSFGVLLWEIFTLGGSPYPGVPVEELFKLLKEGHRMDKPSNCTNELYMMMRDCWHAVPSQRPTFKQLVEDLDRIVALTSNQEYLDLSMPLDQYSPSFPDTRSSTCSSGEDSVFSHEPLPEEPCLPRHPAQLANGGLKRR

Flt1 = Flt1 (Homo sapiens, UniProt P17948); assay: Flt1 kinase activity assay; assay type: biochemical; conditions: under the test conditions employed; read-out: IC50 toward kinase Flt1
Flt1, sequence (P17948 27-1338): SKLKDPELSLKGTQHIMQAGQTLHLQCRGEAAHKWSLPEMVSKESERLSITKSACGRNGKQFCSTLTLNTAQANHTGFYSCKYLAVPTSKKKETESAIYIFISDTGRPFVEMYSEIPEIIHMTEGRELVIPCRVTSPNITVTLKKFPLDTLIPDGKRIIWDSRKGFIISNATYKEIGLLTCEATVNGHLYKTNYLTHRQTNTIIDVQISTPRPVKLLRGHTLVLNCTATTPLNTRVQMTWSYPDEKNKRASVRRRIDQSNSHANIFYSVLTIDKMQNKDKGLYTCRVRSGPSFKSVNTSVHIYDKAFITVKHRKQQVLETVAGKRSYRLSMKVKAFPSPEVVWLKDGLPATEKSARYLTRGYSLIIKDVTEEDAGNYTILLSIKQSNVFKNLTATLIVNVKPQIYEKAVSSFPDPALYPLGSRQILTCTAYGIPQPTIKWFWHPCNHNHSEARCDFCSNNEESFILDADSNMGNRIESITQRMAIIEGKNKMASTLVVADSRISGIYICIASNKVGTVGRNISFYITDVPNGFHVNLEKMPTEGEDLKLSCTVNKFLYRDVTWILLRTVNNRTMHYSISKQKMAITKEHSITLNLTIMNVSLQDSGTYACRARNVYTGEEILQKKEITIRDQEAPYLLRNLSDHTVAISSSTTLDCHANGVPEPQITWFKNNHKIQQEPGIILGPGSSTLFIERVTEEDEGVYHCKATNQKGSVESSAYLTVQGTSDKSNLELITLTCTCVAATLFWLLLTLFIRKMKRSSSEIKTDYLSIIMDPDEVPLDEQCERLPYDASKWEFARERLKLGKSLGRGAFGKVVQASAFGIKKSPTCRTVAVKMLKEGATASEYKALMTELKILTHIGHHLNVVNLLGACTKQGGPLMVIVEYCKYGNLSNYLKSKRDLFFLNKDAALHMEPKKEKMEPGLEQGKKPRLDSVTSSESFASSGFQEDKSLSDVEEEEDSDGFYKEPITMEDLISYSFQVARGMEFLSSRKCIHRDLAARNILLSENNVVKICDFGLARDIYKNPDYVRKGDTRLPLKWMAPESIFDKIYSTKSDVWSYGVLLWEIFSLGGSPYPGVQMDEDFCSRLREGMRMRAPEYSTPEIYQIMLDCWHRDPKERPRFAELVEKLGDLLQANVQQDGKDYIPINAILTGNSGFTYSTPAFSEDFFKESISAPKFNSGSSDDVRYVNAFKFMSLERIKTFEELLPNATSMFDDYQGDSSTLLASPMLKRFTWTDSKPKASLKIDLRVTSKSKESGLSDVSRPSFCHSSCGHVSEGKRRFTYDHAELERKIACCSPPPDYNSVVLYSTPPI

Fms = molecular target: T1, Fms (Homo sapiens, UniProt P07333); assay: Fms biochemical assay (AlphaScreen or 33P-ATP); conditions: under the test conditions employed; read-out: IC50 toward kinase Fms
T1 construct: purchased Upstate Biotech 14-551
Source text: Each sample was at 5% DMSO.

Kdr = Kdr (Homo sapiens, UniProt P35968); assay: Kdr kinase activity assay; assay type: biochemical; conditions: under the test conditions employed; read-out: IC50 toward kinase Kdr
Kdr, sequence (P35968 20-1356): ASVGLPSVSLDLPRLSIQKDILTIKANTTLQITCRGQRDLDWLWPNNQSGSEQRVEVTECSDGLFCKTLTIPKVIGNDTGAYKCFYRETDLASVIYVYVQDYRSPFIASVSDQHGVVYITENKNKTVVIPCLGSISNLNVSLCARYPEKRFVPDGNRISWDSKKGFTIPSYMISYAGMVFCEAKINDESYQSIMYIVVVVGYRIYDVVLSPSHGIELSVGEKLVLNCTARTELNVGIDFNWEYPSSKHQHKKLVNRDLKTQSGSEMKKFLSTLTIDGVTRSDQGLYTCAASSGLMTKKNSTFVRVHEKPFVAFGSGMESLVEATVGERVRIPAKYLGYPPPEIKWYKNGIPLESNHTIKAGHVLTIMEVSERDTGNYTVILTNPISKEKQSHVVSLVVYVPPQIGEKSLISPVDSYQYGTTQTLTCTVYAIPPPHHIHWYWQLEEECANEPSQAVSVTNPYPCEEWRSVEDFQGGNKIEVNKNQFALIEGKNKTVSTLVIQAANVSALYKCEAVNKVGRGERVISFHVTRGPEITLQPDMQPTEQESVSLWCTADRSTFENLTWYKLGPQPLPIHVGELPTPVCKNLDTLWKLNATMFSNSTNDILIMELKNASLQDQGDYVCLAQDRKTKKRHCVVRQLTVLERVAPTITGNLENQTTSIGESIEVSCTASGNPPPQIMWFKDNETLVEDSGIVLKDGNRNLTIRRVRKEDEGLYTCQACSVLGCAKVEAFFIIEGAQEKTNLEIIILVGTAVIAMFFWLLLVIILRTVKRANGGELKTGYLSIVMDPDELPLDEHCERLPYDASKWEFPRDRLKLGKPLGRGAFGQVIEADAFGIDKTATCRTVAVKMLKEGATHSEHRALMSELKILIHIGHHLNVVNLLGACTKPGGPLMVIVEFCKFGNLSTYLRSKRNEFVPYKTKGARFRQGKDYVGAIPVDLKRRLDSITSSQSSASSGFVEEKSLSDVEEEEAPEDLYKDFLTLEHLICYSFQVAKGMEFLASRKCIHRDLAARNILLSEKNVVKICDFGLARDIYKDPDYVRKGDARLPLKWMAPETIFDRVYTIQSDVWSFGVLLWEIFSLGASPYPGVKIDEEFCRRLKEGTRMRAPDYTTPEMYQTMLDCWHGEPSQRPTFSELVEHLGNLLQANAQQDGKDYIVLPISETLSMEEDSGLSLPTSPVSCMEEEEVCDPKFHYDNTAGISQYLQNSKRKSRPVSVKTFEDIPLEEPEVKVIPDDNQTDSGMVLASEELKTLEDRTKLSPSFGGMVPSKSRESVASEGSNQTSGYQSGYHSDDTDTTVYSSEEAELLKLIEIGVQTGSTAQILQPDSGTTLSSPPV

Kit = molecular target: T2, Kit (Homo sapiens, UniProt P10721); assay: c-kit biochemical assay (AlphaScreen or 33P-ATP); conditions: under the test conditions employed; read-out: IC50 toward kinase Kit
T2 construct: P1332.N6 BI PTP KIT M552-K948-X COD; made in house; host or cells: E. coli BL21(DE3)RIL, co-expressed with PTP1B
T2 sequence (P10721 552-948): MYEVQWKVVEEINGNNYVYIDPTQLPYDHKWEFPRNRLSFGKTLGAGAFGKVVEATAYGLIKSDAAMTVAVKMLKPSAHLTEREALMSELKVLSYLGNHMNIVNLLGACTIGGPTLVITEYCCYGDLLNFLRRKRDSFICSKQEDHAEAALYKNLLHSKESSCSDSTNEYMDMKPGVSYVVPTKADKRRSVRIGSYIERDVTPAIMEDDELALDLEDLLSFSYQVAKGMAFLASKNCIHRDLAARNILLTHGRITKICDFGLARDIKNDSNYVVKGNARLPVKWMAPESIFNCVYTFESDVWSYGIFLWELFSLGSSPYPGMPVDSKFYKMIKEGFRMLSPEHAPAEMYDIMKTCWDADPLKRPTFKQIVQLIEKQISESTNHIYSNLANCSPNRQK
How it was run: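 Kinase activity read by AlphaScreen or 33P-ATP incorporation, with c-kit enzyme at 1 ng per sample. The enzyme was either commercial or a recombinant human kit construct made from a gene-synthesized coding sequence.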

Btk = Btk (Homo sapiens, UniProt Q06187); assay: Btk kinase activity assay; assay type: biochemical; conditions: under the test conditions employed; read-out: IC50 toward kinase Btk

B-Raf, sequence (P15056 whole entry): as the sequence (P15056 whole entry V600E) above, with E600V counted along it

IC50 (B-Raf) [µM]	IC50 (B-Raf V600E) [µM]	IC50 (FGFR) [µM]	IC50 (Flt1) [µM]	IC50 (Fms) [µM]	IC50 (Kdr) [µM]	IC50 (Kit) [µM]	IC50 (Btk) [µM]	Structure (SMILES)
≤ 10	≤ 10	≤ 10	≤ 10	≤ 10				COc1cnc2[nH]cc(C(=O)c3c(F)ccc(OCc4ccccc4)c3F)c2c1 [P-1597, (3-Benzyloxy-2,6-difluoro-phenyl)-(5-methoxy-1H-pyrrolo[2,3-b]pyridin-3-yl)-methanone]
≤ 10	≤ 10		≤ 10	≤ 10	≤ 10	≤ 10		Cn1ccnc1COc1ccc(F)c(C(=O)c2c[nH]c3ncc(Cl)cc23)c1F [P-2165, (5-Chloro-1H-pyrrolo[2,3-b]pyridin-3-yl)-[2,6-difluoro-3-(1-methyl-1H-imidazol-2-ylmethoxy)-phenyl]-methanone]
≤ 10	≤ 10	≤ 10	≤ 10					COCCOc1ccc(F)c(C(=O)c2c[nH]c3ncc(OC)cc23)c1F [P-1584, [2,6-Difluoro-3-(2-methoxy-ethoxy)-phenyl]-(5-methoxy-1H-pyrrolo[2,3-b]pyridin-3-yl)-methanone]
≤ 10	≤ 10		≤ 10	≤ 10		≤ 10		COc1cc(Cc2c[nH]c3ncccc23)ccc1OCc1ccc(Cl)cc1F [P-1544, 3-[4-(4-Chloro-2-fluoro-benzyloxy)-3-methoxy-benzyl]-1H-pyrrolo[2,3-b]pyridine]
		≤ 10		≤ 10	≤ 10	≤ 10		COCCOc1ccc(F)c(C(=O)c2c[nH]c3ncccc23)c1Cl [P-2160, [2-Chloro-6-fluoro-3-(2-methoxy-ethoxy)-phenyl]-(1H-pyrrolo[2,3-b]pyridin-3-yl)-methanone]
				≤ 10	≤ 10	≤ 10	≤ 10	O=C(c1c(F)ccc(OCc2ccc(C(F)(F)F)nc2)c1F)c1c[nH]c2ncc(Cl)cc12 [P-2163, (5-Chloro-1H-pyrrolo[2,3-b]pyridin-3-yl)-[2,6-difluoro-3-(6-trifluoromethyl-pyridin-3-ylmethoxy)-phenyl]-methanone]
				≤ 10		≤ 10	≤ 10	Cc1nc(C)c(COc2cccc(C(=O)c3c[nH]c4ncc(Cl)cc34)c2OCC2CC2)s1 [P-2140, (5-Chloro-1H-pyrrolo[2,3-b]pyridin-3-yl)-[2-cyclopropylmethoxy-3-(2,4-dimethyl-thiazol-5-ylmethoxy)-phenyl]-methanone]
≤ 10	≤ 10	≤ 10	≤ 10	≤ 10		≤ 10		O=C(c1c(F)ccc(OCc2ccccc2)c1F)c1c[nH]c2ncc(-c3cccnc3)cc12 [P-1467, (3-Benzyloxy-2,6-difluorophenyl)-(5-pyridin-3-yl-1H-pyrrolo[2,3-b]pyridin-3-yl)-methanone]
≤ 10	≤ 10		≤ 10	≤ 10		≤ 10		COc1ccc(COc2ccc(Cc3c[nH]c4ncccc34)cc2OC)cc1 [P-1569, 3-[3-Methoxy-4-(4-methoxy-benzyloxy)-benzyl]-1H-pyrrolo[2,3-b]pyridine]
≤ 10	≤ 10		≤ 10	≤ 10		≤ 10		COc1cc(Cc2c[nH]c3ncc(Cl)cc23)ccc1OCc1ccc(Cl)cc1 [P-1532, 5-Chloro-3-[4-(4-chloro-benzyloxy)-3-methoxy-benzyl]-1H-pyrrolo[2,3-b]pyridine]
		≤ 10		≤ 10	≤ 10	≤ 10		COCCOc1ccc(F)c(C(=O)c2c[nH]c3ncc(Cl)cc23)c1Cl [P-2159, [2-Chloro-6-fluoro-3-(2-methoxy-ethoxy)-phenyl]-(5-chloro-1H-pyrrolo[2,3-b]pyridin-3-yl)-methanone]
